Patent US20220280589A1, “METHOD FOR TREATING ALZHEIMER'S DISEASE BY REGULATING AMINO ACID LEVEL” (SHANGHAI GREEN VALLEY PHARMACEUTICAL CO., LTD., priority 2019, published 2022)
Entries after “also recorded” stand apart in the source; their conditions may differ.

Columns and labels:
SLC7A5 = target: T1, SLC7A5 (Mus musculus, UniProt Q9Z127); test: Uptake of ^13C-labeled phenylalanine by CD4^+ T cells; format: cell-based; settings: ^13C-phenylalanine 5 mmol/L, 0.5 h
T1 construct: endogenous in cells; host or cells: Primary CD4+ T cells (naive/Th0 and IL-12-induced Th1) from splenocytes of C57BL/6 mice
Method: (k) The uptake of phenylalanine by the naïve CD4 T cells. The naïve CD4 T cells were cultured with/without ^13C-labeled phenylalanine for 0.5 h. Mass Spectrometry of phenylalanine-related compounds were tested. ^13C-Phenylalanine is administered at a concentration of 5 mmol/L, and is taken up by an L-type amino acid transporter.
Naive CD4^+ T cells were separated from the splenocytes of 8-month-old C57BL/6 female mice using the Naive CD4^+ T cell Isolation Kit (Stem Cell, Cat No. 19765) and were induced to Th1 differentiation by 20 ng/mL IL-12. After 3 days, a total of 5 ×10^5 cells/well Th1 cells and Th0 cells in 0.5 mL of RPMI-1640 medium were plated into 48-well plates. ^13C-labeled phenylalanine and 5 mM amino transporter inhibitor BCH were added into indicated wells. After 0.5 h, cells were collected and washed twice with ice-cold D-PBS. 50 μL deionized water was added and cells were lysed through freezing and thawing twice at −80° C. The cell lysate was centrifuged at 12000×g for 10 min and ^13 C-labeled phenylalanine in the supernatant was analyzed by Mass spectrometry.

[1] = system: 5XFAD transgenic (Tg) mice; test: Flow cytometry of brain homogenate immune cells (Th1, M1 microglia); format: in vivo, mouse; settings: 6-month-old 5XFAD mice, 50 mg/kg intraperitoneal injection every day for one month, versus vehicle
Method: Tg mice and co-housed WT mice (corresponding WT mice generated by mating Tg mice and C57 mice) were housed in the same cage after birth. WT mice (C57) were housed in separate cages to avoid cross-transfer of microbiota. All mice were kept in a 23° C. room with a 12-hour (h) light-dark cycle. Mice were randomly assigned to different groups before treatment. For time course analysis of Tg mice, male and female Tg mice were sacrificed at 2, 3, 5, 7 and 9 months of age. The mouse brain was collected and stained for immune cell analysis and cytokine analysis. […] The brains and feces of the mice were then used for different analyses.
Mice were anesthetized, blood samples were collected into EDTA-containing tubes, and red blood cells were removed using 1×red blood lysis buffer. Before tissue collection, the brains were perfused with ice-cold PBS to avoid sampling the circulating blood immune cells, and the brains were removed, chopped into pieces and dissected according to the introduction of the Adult Brain Dissociation Kit (Miltenyi, Cat No. 130-107-677) using the gentleMACS dissociator (Miltenyi Biotec). The brain homogenate was filtered through a 70-μm cell strainer and centrifuged at 300×g for 5 min at 4° C. […] All samples were counted and adjusted to a density of 2-3×10^6/100 μL, labeled with a Live/Dead kit for 30 min, and then centrifuged at 500×g for 3 min at 4° C. […]

naive CD4^+ T cells = test: In vitro differentiation and proliferation induced by phenylalanine and isoleucine; format: cell-based, mouse; settings: 3 days; for Th1 cell proliferation: amino acid (1 mM) added to CellTrace-stained naive CD4^+ T cell culture; for Th0 cell differentiation into Th1 cells: amino acid (1 mM) added to naive CD4^+ T cell culture
Method: (e) The effects of OM1 on the differentiation of naive CD4^+ T cells (Th0 cells) to Th1 cells induced by phenylalanine and isoleucine. Naive CD4^+ T cells were cultured for 3 days with/without OM1 in the presence of phenylalanine (1 mM) or isoleucine (1 mM). The frequency of Th1 (CD4^+IFN-γ^+) cells was tested by flow cytometry. The data are presented as mean±standard error of the mean (mean±sem); n=3 replicates per group. Left, *P<0.05, **P<0.01 by one-way ANOVA (F (2, 6)=15.64). Right, *P<0.05, **P<0.01 by one-way ANOVA (F (2, 6)=10.35).
(f) The effects of OM1 on the proliferation of Th1 cells induced by phenylalanine and isoleucine. The naive CD4^+ T cells were stained with CellTrace and cultured for 3 days with/without OM1 in the presence of phenylalanine (1 mM) and isoleucine (1 mM). The density of CellTrace fluorescence in Th1 (CD4^+IFN-γ^+) cells was tested by flow cytometry (see Methods). The data are presented as mean±standard error of the mean (mean±sem), n=3. *P<0.05, ***P<0.001 by one-way ANOVA (F (4, 9)=28.34).
Naive CD4^+ T cells were separated from the splenocytes of 8-month-old C57BL/6 female mice using the Naive CD4^+ T cell Isolation Kit (Stem Cell, #19765), and the cells were stained with CellTrace (Thermo Fisher, #C34557). A total of 1×10^5 cells/well in 0.2 mL of RPMI-1640 medium were plated in 96-well plates, and the culture medium was supplemented with cytokines or blocking antibodies. Th0: 10 ng/mL mIL-2; Th1:10 ng/mL mIL-2, 5000 ng/mL 11B11. Phenylalanine (final concentration, 2 mmol/L), isoleucine (final concentration, 2 mmol/L) and OM1 (final concentration, 100 μg/mL) were added into the indicated wells, respectively. After incubation at 37° C. in 5% CO2 for 5 days, cells were acquired on a BD Fortessa cytometer, and data were analyzed using FlowJo software.

C57 mice = test: Intraperitoneal injection of phenylalanine and isoleucine, blood Th1 cells by flow cytometry; format: in vivo, mouse; settings: WT (C57) mice, intraperitoneal injection 50 mg/kg for 4 days
Method: (g) Blood Th1 cell changes after 4-day intraperitoneal (i.p.) injection of phenylalanine and isoleucine (n=6). ***P<0.001 by one-way ANOVA (F (2, 21)=101.8).
Tg mice and co-housed WT mice (corresponding WT mice generated by mating Tg mice and C57 mice) were housed in the same cage after birth. WT mice (C57) were housed in separate cages to avoid cross-transfer of microbiota. All mice were kept in a 23° C. room with a 12-hour (h) light-dark cycle. Mice were randomly assigned to different groups before treatment. For time course analysis of Tg mice, male and female Tg mice were sacrificed at 2, 3, 5, 7 and 9 months of age. The mouse brain was collected and stained for immune cell analysis and cytokine analysis. Before the mice were sacrificed, feces were collected for gut microbiota analysis. […] All mouse movements that occur in PhenoTyper (HomeCage) are recorded by a computerized tracking system, which calculates the time and number of entrances required to reach 80% of the performance standard (Noldus, Ethovision). […]
Mice were anesthetized, blood samples were collected into EDTA-containing tubes, and red blood cells were removed using 1×red blood lysis buffer. […] All samples were counted and adjusted to a density of 2-3×10^6/100 μL, labeled with a Live/Dead kit for 30 min, and then centrifuged at 500×g for 3 min at 4° C. […]

T1 sequence (Q9Z127 whole entry): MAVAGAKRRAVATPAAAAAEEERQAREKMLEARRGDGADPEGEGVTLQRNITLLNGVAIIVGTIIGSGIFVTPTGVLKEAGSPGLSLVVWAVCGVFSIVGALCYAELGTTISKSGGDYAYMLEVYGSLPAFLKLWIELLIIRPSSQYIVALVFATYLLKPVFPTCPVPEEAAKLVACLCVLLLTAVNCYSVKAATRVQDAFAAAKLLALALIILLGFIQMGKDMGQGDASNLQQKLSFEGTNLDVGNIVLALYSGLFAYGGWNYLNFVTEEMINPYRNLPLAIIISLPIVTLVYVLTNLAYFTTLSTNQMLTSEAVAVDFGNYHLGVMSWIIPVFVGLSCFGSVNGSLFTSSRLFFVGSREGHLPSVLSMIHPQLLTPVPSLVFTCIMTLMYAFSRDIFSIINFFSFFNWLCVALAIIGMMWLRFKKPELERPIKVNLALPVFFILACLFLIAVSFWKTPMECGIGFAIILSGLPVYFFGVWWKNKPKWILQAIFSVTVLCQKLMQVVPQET
T1 sequence (P10852 whole entry partner): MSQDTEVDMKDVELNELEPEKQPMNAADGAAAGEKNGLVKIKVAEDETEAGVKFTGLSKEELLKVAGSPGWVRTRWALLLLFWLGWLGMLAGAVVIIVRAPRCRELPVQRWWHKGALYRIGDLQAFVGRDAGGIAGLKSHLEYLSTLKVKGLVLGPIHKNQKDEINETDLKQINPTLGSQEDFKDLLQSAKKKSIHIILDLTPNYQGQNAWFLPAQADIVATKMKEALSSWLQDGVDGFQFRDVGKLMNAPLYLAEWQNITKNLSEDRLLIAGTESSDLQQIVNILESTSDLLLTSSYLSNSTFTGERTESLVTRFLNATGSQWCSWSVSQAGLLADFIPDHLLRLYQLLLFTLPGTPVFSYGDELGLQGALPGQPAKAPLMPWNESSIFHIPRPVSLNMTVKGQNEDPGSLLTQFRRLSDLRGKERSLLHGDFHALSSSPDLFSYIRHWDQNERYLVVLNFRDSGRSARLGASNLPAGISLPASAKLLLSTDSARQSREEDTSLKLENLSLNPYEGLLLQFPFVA

SMILES | uptake of ^13C-labeled phenylalanine by CD4^+ T cells (SLC7A5) | proportion of pro-inflammatory Th1 cells in the brain [1] | Th1 cell proliferation (naive CD4^+ T cells) | Th0 cell differentiation into Th1 cells (naive CD4^+ T cells) | Th1 cell count in the blood (C57 mice)
Nc1cc(COc2c(Cl)cc(C[C@H](N)C(=O)O)cc2Cl)c2oc(-c3ccccc3)nc2c1 [JPH203] | blocked | effectively inhibits the proportion of Th1 cells in the brain; also recorded: significantly downregulated the proportion of pro-inflammatory Th1 cells in the mouse brain | – | – | –
CC[C@H](C)[C@H](N)C(=O)O [isoleucine] | – | – | increased | increased | increased significantly
N[C@@H](Cc1ccccc1)C(=O)O [phenylalanine] | – | – | increased | increased | increased significantly
